# In ChEMBL document CHEMBL1773037, “Evaluation of superior BACE1 cleavage sequences containing unnatural amino acids” (Bioorg Med Chem, 2011):
# Starred links: 1 amine or outer side, 2 acyl side, 3 side chain; linkers in the order of their positions; H or OH if unused. Non-standard residues stand in square brackets, D forms with d. Residues, ends and D or L forms follow the SMILES beside them. X1 = O=C(O)[C@@H]1Cc2ccccc2CN1[C@H](N[*:1])C(=O)[*:2]; 2Thi = N[C@@H](Cc1cccs1)C(=O)O; Cha = N[C@@H](CC1CCCCC1)C(=O)O; Cit = NC(=O)NCCC[C@H](N)C(=O)O; Phg = N[C@H](C(=O)O)c1ccccc1; Tle = CC(C)(C)[C@H](N)C(=O)O; Nva = CCC[C@H](N)C(=O)O; Abu = CC[C@H](N)C(=O)O
# Molecular target: Beta-secretase 1 (Homo sapiens) (UniProt P56817)
# Assay: Activity of recombinant BACE assessed as retention time of substrate by HPLC method
# Chain of Beta-secretase 1 (Homo sapiens) (P56817 whole entry): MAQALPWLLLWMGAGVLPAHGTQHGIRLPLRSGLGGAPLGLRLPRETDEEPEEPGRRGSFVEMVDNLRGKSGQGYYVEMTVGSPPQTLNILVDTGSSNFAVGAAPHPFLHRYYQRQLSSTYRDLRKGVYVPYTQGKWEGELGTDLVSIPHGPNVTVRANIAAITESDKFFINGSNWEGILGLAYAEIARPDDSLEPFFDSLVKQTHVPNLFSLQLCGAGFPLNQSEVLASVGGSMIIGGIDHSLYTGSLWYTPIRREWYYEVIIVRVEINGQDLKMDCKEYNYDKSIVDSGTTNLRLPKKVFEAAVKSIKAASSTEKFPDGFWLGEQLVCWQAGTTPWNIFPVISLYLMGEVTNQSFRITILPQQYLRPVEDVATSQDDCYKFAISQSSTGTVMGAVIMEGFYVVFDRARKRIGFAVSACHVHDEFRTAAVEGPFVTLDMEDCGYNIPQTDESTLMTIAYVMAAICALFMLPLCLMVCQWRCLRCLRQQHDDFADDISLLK
row,retention time [h],Compound
1,0.474,CC[C@H](C)[C@H](N)C(=O)N[C@@H](CO)C(=O)N[C@@H](CC(=O)O)C(=O)N[C@H](C(=O)N[C@@H](CC(N)=O)C(=O)N[C@@H](CC(C)C)C(=O)N[C@@H](CC(=O)O)C(=O)N[C@@H](C)C(=O)N[C@@H](CCC(=O)O)C(=O)N[C@@H](Cc1ccccc1)C(=O)N[C@@H](CCCNC(=N)N)C(=O)N[C@@H](Cc1cnc[nH]1)C(N)=O)C(C)C (H-ISDVNLDAEFRH-NH2)
2,0.567,CCC[C@H](NC(=O)[C@H](CO)NC(=O)[C@@H](N)[C@@H](C)CC)C(=O)N[C@H](C(=O)N[C@@H](CC(N)=O)C(=O)N[C@@H](CC(C)C)C(=O)N[C@@H](CC(=O)O)C(=O)N[C@@H](C)C(=O)N[C@@H](CCC(=O)O)C(=O)N[C@@H](Cc1ccccc1)C(=O)N[C@@H](CCCNC(=N)N)C(=O)N[C@@H](Cc1cnc[nH]1)C(N)=O)C(C)C (H-IS[Nva]VNLDAEFRH-NH2)
3,0.629,CC[C@H](C)[C@H](N)C(=O)N[C@@H](CO)C(=O)N[C@@H](CCC(=O)O)C(=O)N[C@H](C(=O)N[C@@H](CC(N)=O)C(=O)N[C@@H](CC(C)C)C(=O)N[C@H](C(=O)N[C@@H](C)C(=O)N[C@@H](CCC(=O)O)C(=O)N[C@@H](Cc1ccccc1)C(=O)N[C@@H](CCCNC(=N)N)C(=O)N[C@@H](Cc1cnc[nH]1)C(N)=O)C(C)(C)C)C(C)C (H-ISEVNL[Tle]AEFRH-NH2)
4,0.528,CC[C@H](NC(=O)[C@H](CO)NC(=O)[C@@H](N)[C@@H](C)CC)C(=O)N[C@H](C(=O)N[C@@H](CC(N)=O)C(=O)N[C@@H](CC(C)C)C(=O)N[C@@H](CC(=O)O)C(=O)N[C@@H](C)C(=O)N[C@@H](CCC(=O)O)C(=O)N[C@@H](Cc1ccccc1)C(=O)N[C@@H](CCCNC(=N)N)C(=O)N[C@@H](Cc1cnc[nH]1)C(N)=O)C(C)C (H-IS[Abu]VNLDAEFRH-NH2)
5,0.592,CC[C@H](C)[C@H](N)C(=O)N[C@@H](CO)C(=O)N[C@@H](CCC(=O)O)C(=O)N[C@@H](CC1CCCCC1)C(=O)N[C@@H](CC(N)=O)C(=O)N[C@@H](CC(C)C)C(=O)N[C@@H](CC(=O)O)C(=O)N[C@@H](C)C(=O)N[C@@H](CCC(=O)O)C(=O)N[C@@H](Cc1ccccc1)C(=O)N[C@@H](CCCNC(=N)N)C(=O)N[C@@H](Cc1cnc[nH]1)C(N)=O (H-ISE[Cha]NLDAEFRH-NH2)
6,0.52,CC[C@H](C)[C@H](N)C(=O)N[C@@H](CO)C(=O)N[C@@H](CCC(=O)O)C(=O)N[C@H](C(=O)N[C@@H](CC(N)=O)C(=O)N[C@@H](CC(C)C)C(=O)N[C@@H](CCC(N)=O)C(=O)N[C@@H](C)C(=O)N[C@@H](CCC(=O)O)C(=O)N[C@@H](Cc1ccccc1)C(=O)N[C@@H](CCCNC(=N)N)C(=O)N[C@@H](Cc1cnc[nH]1)C(N)=O)C(C)C (H-ISEVNLQAEFRH-NH2)
7,0.5,CC[C@H](NC(=O)[C@@H](NC(=O)[C@H](CCC(=O)O)NC(=O)[C@H](CO)NC(=O)[C@@H](N)[C@@H](C)CC)C(C)C)C(=O)N[C@@H](CC(C)C)C(=O)N[C@@H](CC(=O)O)C(=O)N[C@@H](C)C(=O)N[C@@H](CCC(=O)O)C(=O)N[C@@H](Cc1ccccc1)C(=O)N[C@@H](CCCNC(=N)N)C(=O)N[C@@H](Cc1cnc[nH]1)C(N)=O (H-ISEV[Abu]LDAEFRH-NH2)
8,0.689,CC[C@H](C)[C@H](N)C(=O)N[C@@H](CO)C(=O)N[C@@H](CC1CCCCC1)C(=O)N[C@H](C(=O)N[C@@H](CC(N)=O)C(=O)N[C@@H](CC(C)C)C(=O)N[C@@H](CC(=O)O)C(=O)N[C@@H](C)C(=O)N[C@@H](CCC(=O)O)C(=O)N[C@@H](Cc1ccccc1)C(=O)N[C@@H](CCCNC(=N)N)C(=O)N[C@@H](Cc1cnc[nH]1)C(N)=O)C(C)C (H-IS[Cha]VNLDAEFRH-NH2)

# More lines, now with the values behind:
row,Compound,retention time [h]
1,CC[C@H](C)[C@H](N)C(=O)N[C@@H](CO)C(=O)N[C@@H](CCC(=O)O)C(=O)N[C@H](C(=O)N[C@@H](CC(N)=O)C(=O)N[C@@H](CC(C)C)C(=O)N[C@@H](CCCNC(N)=O)C(=O)N[C@@H](C)C(=O)N[C@@H](CCC(=O)O)C(=O)N[C@@H](Cc1ccccc1)C(=O)N[C@@H](CCCNC(=N)N)C(=O)N[C@@H](Cc1cnc[nH]1)C(N)=O)C(C)C (H-ISEVNL[Cit]AEFRH-NH2),0.536
2,CC[C@H](NC(=O)[C@H](CCC(=O)O)NC(=O)[C@H](CO)NC(=O)[C@@H](N)[C@@H](C)CC)C(=O)N[C@@H](CC(N)=O)C(=O)N[C@@H](CC(C)C)C(=O)N[C@@H](CC(=O)O)C(=O)N[C@@H](C)C(=O)N[C@@H](CCC(=O)O)C(=O)N[C@@H](Cc1ccccc1)C(=O)N[C@@H](CCCNC(=N)N)C(=O)N[C@@H](Cc1cnc[nH]1)C(N)=O (H-ISE[Abu]NLDAEFRH-NH2),0.47
3,CC[C@H](C)[C@H](N)C(=O)N[C@@H](CO)C(=O)N[C@@H](CCC(=O)O)C(=O)N[C@H](C(=O)N[C@@H](CCCCN)C(=O)N[C@@H](CCSC)C(=O)N[C@@H](CC(=O)O)C(=O)N[C@@H](C)C(=O)N[C@@H](CCC(=O)O)C(=O)N[C@@H](Cc1ccccc1)C(=O)N[C@@H](CCCNC(=N)N)C(=O)N[C@@H](Cc1cnc[nH]1)C(N)=O)C(C)C (H-ISEVKMDAEFRH-NH2),0.419
4,CC[C@H](C)[C@H](N)C(=O)N[C@@H](CO)C(=O)N[C@@H](CCC(=O)O)C(=O)N[C@H](C(=O)N[C@H](C(=O)N[C@@H](CC(C)C)C(=O)N[C@@H](CC(=O)O)C(=O)N[C@@H](C)C(=O)N[C@@H](CCC(=O)O)C(=O)N[C@@H](Cc1ccccc1)C(=O)N[C@@H](CCCNC(=N)N)C(=O)N[C@@H](Cc1cnc[nH]1)C(N)=O)c1ccccc1)C(C)C (H-ISEV[Phg]LDAEFRH-NH2),0.541
5,CC[C@H](C)[C@H](N)C(=O)N[C@@H](CO)C(=O)N[C@@H](CCC(=O)O)C(=O)N[C@H](C(=O)N[C@H](C(=O)N[C@@H](CC(C)C)C(=O)N[C@@H](CC(=O)O)C(=O)N[C@@H](C)C(=O)N[C@@H](CCC(=O)O)C(=O)N[C@@H](Cc1ccccc1)C(=O)N[C@@H](CCCNC(=N)N)C(=O)N[C@@H](Cc1cnc[nH]1)C(N)=O)C(C)(C)C)C(C)C (H-ISEV[Tle]LDAEFRH-NH2),0.531
6,CC[C@H](C)[C@H](N)C(=O)N[C@@H](CO)C(=O)N[C@@H](CCC(=O)O)C(=O)N[C@H](C(=O)N[C@@H](CC(N)=O)C(=O)N[C@@H](CC(C)C)C(=O)N[C@@H](CC(=O)O)C(=O)N[C@@H](C)C(=O)N[C@@H](CCC(=O)O)C(=O)N[C@@H](Cc1ccccc1)C(=O)N[C@@H](CCCNC(=N)N)C(=O)N[C@@H](Cc1cnc[nH]1)C(N)=O)c1ccccc1 (H-ISE[Phg]NLDAEFRH-NH2),0.514
7,CC[C@H](C)[C@H](N)C(=O)N[C@@H](CO)C(=O)N[C@@H](CCC(=O)O)C(=O)N[C@H](C(=O)N[C@@H](CCCNC(N)=O)C(=O)N[C@@H](CC(C)C)C(=O)N[C@@H](CC(=O)O)C(=O)N[C@@H](C)C(=O)N[C@@H](CCC(=O)O)C(=O)N[C@@H](Cc1ccccc1)C(=O)N[C@@H](CCCNC(=N)N)C(=O)N[C@@H](Cc1cnc[nH]1)C(N)=O)C(C)C (H-ISEV[Cit]LDAEFRH-NH2),0.482
8,CC[C@H](C)[C@H](N)C(=O)N[C@@H](CO)C(=O)N[C@@H](CCC(=O)O)C(=O)N[C@H](C(=O)N[C@@H](CC(N)=O)C(=O)N[C@@H](CC(C)C)C(=O)N[C@@H](CC(=O)O)C(=O)N[C@@H](C)C(=O)N[C@@H](CCC(=O)O)C(=O)N[C@@H](Cc1ccccc1)C(=O)N[C@@H](CCCNC(=N)N)C(=O)N[C@@H](Cc1cnc[nH]1)C(N)=O)N1Cc2ccccc2C[C@H]1C(=O)O (H-ISE[X1]NLDAEFRH-NH2),0.599
9,CC[C@H](C)[C@H](N)C(=O)N[C@@H](CO)C(=O)N[C@@H](CCC(=O)O)C(=O)N[C@H](C(=O)N[C@@H](CC(N)=O)C(=O)N[C@@H](CC(C)C)C(=O)N[C@H](C(=O)N[C@@H](C)C(=O)N[C@@H](CCC(=O)O)C(=O)N[C@@H](Cc1ccccc1)C(=O)N[C@@H](CCCNC(=N)N)C(=O)N[C@@H](Cc1cnc[nH]1)C(N)=O)c1ccccc1)C(C)C (H-ISEVNL[Phg]AEFRH-NH2),0.617
10,CC[C@H](C)[C@H](N)C(=O)N[C@@H](CO)C(=O)N[C@@H](CCC(=O)O)C(=O)N[C@@H](CCC(=O)O)C(=O)N[C@@H](CC(N)=O)C(=O)N[C@@H](CC(C)C)C(=O)N[C@@H](CC(=O)O)C(=O)N[C@@H](C)C(=O)N[C@@H](CCC(=O)O)C(=O)N[C@@H](Cc1ccccc1)C(=O)N[C@@H](CCCNC(=N)N)C(=O)N[C@@H](Cc1cnc[nH]1)C(N)=O (H-ISEENLDAEFRH-NH2),0.457
11,CC[C@H](C)[C@H](N)C(=O)N[C@@H](CO)C(=O)N[C@@H](CCC(=O)O)C(=O)N[C@H](C(=O)N[C@@H](CC(N)=O)C(=O)N[C@H](C(=O)N[C@@H](CC(=O)O)C(=O)N[C@@H](C)C(=O)N[C@@H](CCC(=O)O)C(=O)N[C@@H](Cc1ccccc1)C(=O)N[C@@H](CCCNC(=N)N)C(=O)N[C@@H](Cc1cnc[nH]1)C(N)=O)N1Cc2ccccc2C[C@H]1C(=O)O)C(C)C (H-ISEVN[X1]DAEFRH-NH2),0.502
12,CC[C@H](C)[C@H](N)C(=O)N[C@@H](CO)C(=O)N[C@H](C(=O)N[C@H](C(=O)N[C@@H](CC(N)=O)C(=O)N[C@@H](CC(C)C)C(=O)N[C@@H](CC(=O)O)C(=O)N[C@@H](C)C(=O)N[C@@H](CCC(=O)O)C(=O)N[C@@H](Cc1ccccc1)C(=O)N[C@@H](CCCNC(=N)N)C(=O)N[C@@H](Cc1cnc[nH]1)C(N)=O)C(C)C)N1Cc2ccccc2C[C@H]1C(=O)O (H-IS[X1]VNLDAEFRH-NH2),0.628
13,CC[C@H](C)[C@H](N)C(=O)N[C@@H](CO)C(=O)N[C@@H](CCC(=O)O)C(=O)N[C@H](C(=O)N[C@@H](Cc1cccs1)C(=O)N[C@@H](Cc1cccs1)C(=O)O)[C@@H](C)CC (H-ISEI[2Thi][2Thi]-OH),0.63
14,CC[C@H](C)[C@H](N)C(=O)N[C@@H](CO)C(=O)N[C@@H](CCC(=O)O)C(=O)N[C@H](C(=O)N[C@@H](CC(N)=O)C(=O)N[C@@H](CC(C)C)C(=O)N[C@@H](Cc1cccs1)C(=O)N[C@@H](C)C(=O)N[C@@H](CCC(=O)O)C(=O)N[C@@H](Cc1ccccc1)C(=O)N[C@@H](CCCNC(=N)N)C(=O)N[C@@H](Cc1cnc[nH]1)C(N)=O)C(C)C (H-ISEVNL[2Thi]AEFRH-NH2),0.656
15,CC[C@H](C)[C@H](N)C(=O)N[C@@H](CO)C(=O)N[C@@H](CCC(=O)O)C(=O)N[C@H](C(=O)N[C@@H](Cc1ccccc1)C(=O)N[C@@H](CC(C)C)C(=O)N[C@@H](CC(=O)O)C(=O)N[C@@H](C)C(=O)N[C@@H](CCC(=O)O)C(=O)N[C@@H](Cc1ccccc1)C(=O)N[C@@H](CCCNC(=N)N)C(=O)N[C@@H](Cc1cnc[nH]1)C(N)=O)C(C)C (H-ISEVFLDAEFRH-NH2),0.565
